How the values were obtained:
JAK1 = JAK1 (Homo sapiens (Human), UniProt P23458); test: Biochemical JAK1 kinase assay (LanthaScreen)
Method in brief: (§1)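 GST-JAK + GFP-STAT1 peptide, HEPES pH 7.5/MgCl2/EGTA/Brij-35 buffer; cpd preincubation 1 h RT; ATP start, 1 h RT; stop with 10 mM EDTA + 2 nM Tb-anti-pSTAT1; TR-FRET 520/495. 4-parameter IC50 → pKi (Cheng-Prusoff).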

JAK2 = JAK2 (Homo sapiens (Human), UniProt O60674); test: Biochemical JAK2 kinase assay (LanthaScreen)
Method in brief: as §1

[1] = system: IL-2 stimulated STAT5 phosphorylation in Tall-1 human T cell line (JAK3); test: Cellular JAK3 potency assay: inhibition of IL-2 stimulated pSTAT5 in Tall-1 T cells; type: cell-based
Method in brief: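 AlphaLISA SureFire Ultra measures STAT5 Tyr694/699 phosphorylation in lysed Tall-1 human T cells. Cells were exposed to compound for 1 h at 37 °C before a 30 min IL-2 challenge (300 ng/ml final). Values are pIC50 means with standard deviation from signal-versus-concentration curves.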

JAK3 = JAK3 (Homo sapiens (Human), UniProt P52333); test: Biochemical JAK3 kinase assay (LanthaScreen)
Sequence of JAK3 (P52333 whole entry): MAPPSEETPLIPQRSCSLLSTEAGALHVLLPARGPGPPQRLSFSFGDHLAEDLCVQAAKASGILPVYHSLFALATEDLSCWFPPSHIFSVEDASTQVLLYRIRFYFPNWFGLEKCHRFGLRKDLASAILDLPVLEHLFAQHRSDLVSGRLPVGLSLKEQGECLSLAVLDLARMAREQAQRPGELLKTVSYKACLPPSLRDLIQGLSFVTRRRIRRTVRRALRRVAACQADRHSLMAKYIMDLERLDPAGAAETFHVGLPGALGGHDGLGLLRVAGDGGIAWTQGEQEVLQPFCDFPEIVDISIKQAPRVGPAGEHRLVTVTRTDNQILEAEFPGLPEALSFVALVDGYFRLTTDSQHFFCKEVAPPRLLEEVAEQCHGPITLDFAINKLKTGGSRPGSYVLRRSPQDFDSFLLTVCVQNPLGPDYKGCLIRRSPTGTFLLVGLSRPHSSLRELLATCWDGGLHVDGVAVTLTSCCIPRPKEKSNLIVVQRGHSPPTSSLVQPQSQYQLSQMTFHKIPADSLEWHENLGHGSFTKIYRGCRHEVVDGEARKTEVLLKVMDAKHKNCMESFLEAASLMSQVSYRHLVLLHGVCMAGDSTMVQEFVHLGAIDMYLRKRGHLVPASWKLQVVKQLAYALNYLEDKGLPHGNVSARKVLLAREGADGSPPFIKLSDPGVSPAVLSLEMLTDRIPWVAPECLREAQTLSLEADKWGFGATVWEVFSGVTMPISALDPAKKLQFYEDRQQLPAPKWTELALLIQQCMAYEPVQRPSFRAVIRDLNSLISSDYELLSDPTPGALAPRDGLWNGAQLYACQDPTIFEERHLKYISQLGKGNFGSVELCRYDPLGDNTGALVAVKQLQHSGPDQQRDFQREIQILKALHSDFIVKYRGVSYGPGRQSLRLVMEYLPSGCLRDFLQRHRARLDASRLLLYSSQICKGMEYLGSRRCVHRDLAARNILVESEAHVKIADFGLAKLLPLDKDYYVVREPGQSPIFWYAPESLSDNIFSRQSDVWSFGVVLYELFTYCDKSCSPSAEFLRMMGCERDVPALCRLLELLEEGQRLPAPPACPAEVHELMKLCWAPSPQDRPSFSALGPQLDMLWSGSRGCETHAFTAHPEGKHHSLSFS
Method in brief: as §1

Tyk2 = Tyk2 (Homo sapiens (Human), UniProt P29597); test: Biochemical Tyk2 kinase assay (LanthaScreen)
Sequence of Tyk2 (P29597 whole entry): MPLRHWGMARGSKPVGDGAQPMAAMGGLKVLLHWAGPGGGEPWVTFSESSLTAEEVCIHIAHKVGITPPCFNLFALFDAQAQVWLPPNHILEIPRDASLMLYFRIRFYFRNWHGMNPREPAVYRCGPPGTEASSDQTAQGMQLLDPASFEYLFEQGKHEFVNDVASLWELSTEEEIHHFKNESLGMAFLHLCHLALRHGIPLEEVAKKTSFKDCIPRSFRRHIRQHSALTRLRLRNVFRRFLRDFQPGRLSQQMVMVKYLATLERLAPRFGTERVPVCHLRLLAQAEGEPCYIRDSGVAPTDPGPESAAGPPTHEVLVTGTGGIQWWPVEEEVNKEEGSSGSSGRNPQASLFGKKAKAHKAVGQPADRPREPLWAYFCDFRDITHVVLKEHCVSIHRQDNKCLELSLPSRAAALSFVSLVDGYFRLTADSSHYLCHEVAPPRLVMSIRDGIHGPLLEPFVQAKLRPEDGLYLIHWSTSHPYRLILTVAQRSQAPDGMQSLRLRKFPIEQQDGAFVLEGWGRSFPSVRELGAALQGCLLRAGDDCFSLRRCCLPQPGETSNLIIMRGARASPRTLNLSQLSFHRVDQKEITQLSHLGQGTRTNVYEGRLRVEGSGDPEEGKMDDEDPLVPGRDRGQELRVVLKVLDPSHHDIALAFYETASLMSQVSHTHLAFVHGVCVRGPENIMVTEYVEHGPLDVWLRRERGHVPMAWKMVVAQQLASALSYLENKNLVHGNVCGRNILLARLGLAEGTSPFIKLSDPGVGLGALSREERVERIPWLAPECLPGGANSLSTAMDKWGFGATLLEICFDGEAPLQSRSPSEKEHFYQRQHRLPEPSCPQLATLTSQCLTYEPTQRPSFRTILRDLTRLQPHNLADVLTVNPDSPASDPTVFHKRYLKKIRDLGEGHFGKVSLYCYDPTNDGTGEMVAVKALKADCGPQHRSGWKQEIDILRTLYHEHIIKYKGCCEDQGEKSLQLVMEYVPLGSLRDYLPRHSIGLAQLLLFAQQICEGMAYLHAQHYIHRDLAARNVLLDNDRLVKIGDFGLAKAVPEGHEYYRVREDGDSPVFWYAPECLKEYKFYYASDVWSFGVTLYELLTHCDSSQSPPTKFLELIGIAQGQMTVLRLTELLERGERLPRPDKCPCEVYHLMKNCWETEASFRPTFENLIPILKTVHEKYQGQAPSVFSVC
Method in brief: as §1

[2] = IL-2 stimulated pSTAT5, Tall-1 T cells
[3] = selectivity JAK3 over JAK1, difference of pKi
[4] = IL-2 stimulated pSTAT5 in Tall-1 T cells
[5] = selectivity, difference of pKi values

Sequence of JAK2 (O60674 whole entry): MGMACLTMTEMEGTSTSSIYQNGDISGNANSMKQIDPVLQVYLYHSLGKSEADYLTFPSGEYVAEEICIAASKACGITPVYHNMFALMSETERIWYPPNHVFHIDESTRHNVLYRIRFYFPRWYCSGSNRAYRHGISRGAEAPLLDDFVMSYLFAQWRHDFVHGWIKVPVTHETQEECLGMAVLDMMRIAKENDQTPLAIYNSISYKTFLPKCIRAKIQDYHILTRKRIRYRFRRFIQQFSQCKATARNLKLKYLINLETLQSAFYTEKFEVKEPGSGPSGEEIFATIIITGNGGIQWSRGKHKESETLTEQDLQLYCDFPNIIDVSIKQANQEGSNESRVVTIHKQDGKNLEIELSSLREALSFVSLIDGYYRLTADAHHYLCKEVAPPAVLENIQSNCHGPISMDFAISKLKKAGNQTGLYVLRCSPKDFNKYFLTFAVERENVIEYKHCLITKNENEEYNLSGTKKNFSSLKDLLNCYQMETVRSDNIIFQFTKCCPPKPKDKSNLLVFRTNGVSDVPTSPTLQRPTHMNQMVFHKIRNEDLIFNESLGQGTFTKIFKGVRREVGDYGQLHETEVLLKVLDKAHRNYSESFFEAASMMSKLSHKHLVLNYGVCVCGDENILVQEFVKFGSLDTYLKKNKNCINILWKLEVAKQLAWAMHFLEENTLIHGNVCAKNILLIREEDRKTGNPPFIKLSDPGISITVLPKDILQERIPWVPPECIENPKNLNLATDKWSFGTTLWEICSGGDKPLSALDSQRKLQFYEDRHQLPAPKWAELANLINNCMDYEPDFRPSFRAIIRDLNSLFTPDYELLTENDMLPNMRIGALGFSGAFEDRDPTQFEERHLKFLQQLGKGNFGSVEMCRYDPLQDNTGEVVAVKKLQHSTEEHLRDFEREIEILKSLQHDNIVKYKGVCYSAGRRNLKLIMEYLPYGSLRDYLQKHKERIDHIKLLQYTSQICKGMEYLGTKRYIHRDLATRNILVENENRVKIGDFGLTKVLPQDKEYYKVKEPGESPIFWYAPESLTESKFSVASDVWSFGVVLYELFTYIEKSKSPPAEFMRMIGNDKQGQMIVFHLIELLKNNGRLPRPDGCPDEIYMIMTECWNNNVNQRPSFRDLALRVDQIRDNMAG
Sequence of JAK1 (P23458 whole entry): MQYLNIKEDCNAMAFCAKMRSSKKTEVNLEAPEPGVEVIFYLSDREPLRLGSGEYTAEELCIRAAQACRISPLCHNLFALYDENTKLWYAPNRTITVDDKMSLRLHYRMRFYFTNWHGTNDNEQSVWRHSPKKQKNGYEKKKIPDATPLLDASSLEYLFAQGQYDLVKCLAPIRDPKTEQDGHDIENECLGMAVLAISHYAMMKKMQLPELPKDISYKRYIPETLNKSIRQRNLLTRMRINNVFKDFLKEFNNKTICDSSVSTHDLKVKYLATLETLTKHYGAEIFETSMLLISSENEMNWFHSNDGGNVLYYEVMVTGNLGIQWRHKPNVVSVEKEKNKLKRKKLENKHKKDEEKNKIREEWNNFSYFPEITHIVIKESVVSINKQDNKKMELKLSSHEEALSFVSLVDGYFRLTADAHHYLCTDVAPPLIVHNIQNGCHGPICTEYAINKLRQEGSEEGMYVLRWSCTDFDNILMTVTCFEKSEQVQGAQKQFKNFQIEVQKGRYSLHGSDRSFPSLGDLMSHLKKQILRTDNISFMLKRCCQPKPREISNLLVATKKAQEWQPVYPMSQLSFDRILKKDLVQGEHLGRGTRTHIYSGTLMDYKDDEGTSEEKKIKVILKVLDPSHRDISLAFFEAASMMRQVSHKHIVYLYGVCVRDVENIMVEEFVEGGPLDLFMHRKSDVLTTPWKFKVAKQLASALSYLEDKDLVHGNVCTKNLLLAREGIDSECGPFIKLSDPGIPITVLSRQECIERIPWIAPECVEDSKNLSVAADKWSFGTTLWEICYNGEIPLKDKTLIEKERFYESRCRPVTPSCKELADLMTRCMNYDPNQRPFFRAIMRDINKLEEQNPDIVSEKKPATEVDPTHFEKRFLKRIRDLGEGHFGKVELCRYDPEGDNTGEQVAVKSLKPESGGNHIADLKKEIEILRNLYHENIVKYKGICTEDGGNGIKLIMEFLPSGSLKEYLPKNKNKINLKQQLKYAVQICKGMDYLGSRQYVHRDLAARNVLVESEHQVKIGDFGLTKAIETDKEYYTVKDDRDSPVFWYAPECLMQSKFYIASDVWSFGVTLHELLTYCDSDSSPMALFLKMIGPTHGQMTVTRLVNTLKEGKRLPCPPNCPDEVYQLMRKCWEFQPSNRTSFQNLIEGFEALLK

| Compound | JAK 1 (pKi) (JAK1) | JAK 2 (pKi) (JAK2) | Tall-1 (pIC50) [1, 2] | JAK 3 (pKi) (JAK3) | JAK3 (pKi)-JAK1 (pKi) (JAK3; [3]) | Tyk 2 (pKi) (Tyk2) | Tall-1 (pIC50) [1, 4] | JAK3 (pKi)-JAK1 (pKi) (JAK3; [5]) |
| --- | --- | --- | --- | --- | --- | --- | --- | --- |
| C=CC(=O)N1CC(CCn2c(=O)ccc3cnc(Nc4ccn(C)n4)nc32)C1 [Example 226] | E (E represents a pKi value of 7 or below (Ki of 100 nM or above)) | E (E represents a pKi value of 7 or below (Ki of 100 nM or above)) | C (C represents a pIC50 value between 6 and 6.7 (IC50 between 1 μM and 200 nM)) | B (B represents pKi value between 9 and 10 (Ki between 1 nM and 0.1 nM)) | A (A represents a value of 3 or above) | E (E represents a pKi value of 7 or below (Ki of 100 nM or above)) |  |  |
| C=CC(=O)N1CCN(CCn2c(=O)ccc3cnc(Nc4ccc(N5CCN(C(C)=O)CC5)c(F)c4)nc32)CC1 [Example 152] | E (E represents a pKi value of 7 or below (Ki of 100 nM or above)) | E (E represents a pKi value of 7 or below (Ki of 100 nM or above)) | C (C represents a pIC50 value between 6 and 6.7 (IC50 between 1 μM and 200 nM)) | B (B represents pKi value between 9 and 10 (Ki between 1 nM and 0.1 nM)) | A (A represents a value of 3 or above) | E (E represents a pKi value of 7 or below (Ki of 100 nM or above)) |  |  |
| C=CC(=O)N1CCN(CCn2c(=O)ccc3cnc(Nc4cnn(C)c4)nc32)C(C)(C)C1 [Example 33] | E (E represents a pKi value of 7 or below (Ki of 100 nM or above)) | E (E represents a pKi value of 7 or below (Ki of 100 nM or above)) | B (B represents a pC50 value between 6.7 (included) and 7.5 (IC50 between 200 nM and 32 nM)) | A (A represents a pKi value≥10 (Ki≤0.1 nM)) | A (A represents a value of 3 or above) | E (E represents a pKi value of 7 or below (Ki of 100 nM or above)) |  |  |
| C=CC(=O)N1CC(CCn2c(=O)ccc3cnc(Nc4cnn(CC)c4)nc32)C1 [Example 241] | E (E represents a pKi value of 7 or below (Ki of 100 nM or above)) | E (E represents a pKi value of 7 or below (Ki of 100 nM or above)) |  | B (B represents pKi value between 9 and 10 (Ki between 1 nM and 0.1 nM)) |  | E (E represents a pKi value of 7 or below (Ki of 100 nM or above)) | B (B represents a pC50 value between 6.7 (included) and 7.5 (IC50 between 200 nM and 32 nM)) | A (A represents a value of 3 or above) |
| C[C@@H]1CN(c2ccc(Nc3ncc4ccc(=O)n(CCC5CN(C(=O)/C=C/CN(C)C)C5)c4n3)cc2)CCN1C [Example 228] | E (E represents a pKi value of 7 or below (Ki of 100 nM or above)) | E (E represents a pKi value of 7 or below (Ki of 100 nM or above)) | C (C represents a pIC50 value between 6 and 6.7 (IC50 between 1 μM and 200 nM)) | B (B represents pKi value between 9 and 10 (Ki between 1 nM and 0.1 nM)) | A (A represents a value of 3 or above) | E (E represents a pKi value of 7 or below (Ki of 100 nM or above)) |  |  |
| C=CC(=O)N1CCN(CCn2c(=O)ccc3cnc(Nc4ccc(N5C[C@@H](C)N(C)[C@@H](C)C5)cc4)nc32)[C@@H](C)C1 [Example 249] | E (E represents a pKi value of 7 or below (Ki of 100 nM or above)) | E (E represents a pKi value of 7 or below (Ki of 100 nM or above)) |  | B (B represents pKi value between 9 and 10 (Ki between 1 nM and 0.1 nM)) |  | E (E represents a pKi value of 7 or below (Ki of 100 nM or above)) | A (A represents a pIC50 value≥7.5 (IC50≤32 nM)) | A (A represents a value of 3 or above) |
| CN(C)C/C=C/C(=O)N1CC(CCn2c(=O)ccc3cnc(Nc4ccc(N5CCN(C)CC5)cn4)cc32)C1 [Example 11, (E)-1-(2-(1-(4-(dimethylamino)but-2-enoyl)azetidin-3-yl)ethyl)-7-((5-(4-methylpiperazin-1-yl)pyridin-2-yl)amino)-1,6-naphthyridin-2(1H)-one] | E (E represents a pKi value of 7 or below (Ki of 100 nM or above)) | E (E represents a pKi value of 7 or below (Ki of 100 nM or above)) | B (B represents a pC50 value between 6.7 (included) and 7.5 (IC50 between 200 nM and 32 nM)) | B (B represents pKi value between 9 and 10 (Ki between 1 nM and 0.1 nM)) | A (A represents a value of 3 or above) | E (E represents a pKi value of 7 or below (Ki of 100 nM or above)) |  |  |
| C=CC(=O)N1CCN(C(C)(C)Cn2c(=O)ccc3cnc(Nc4ccc(N5CCN(C)CC5)cc4)nc32)CC1 [Example 164] | E (E represents a pKi value of 7 or below (Ki of 100 nM or above)) | E (E represents a pKi value of 7 or below (Ki of 100 nM or above)) | C (C represents a pIC50 value between 6 and 6.7 (IC50 between 1 μM and 200 nM)) | B (B represents pKi value between 9 and 10 (Ki between 1 nM and 0.1 nM)) | A (A represents a value of 3 or above) | E (E represents a pKi value of 7 or below (Ki of 100 nM or above)) |  |  |

Source: US11697648B2, “Fused pyrimidine pyridinone compounds as JAK inhibitors” (THERAVANCE BIOPHARMA R&D IP, LLC, priority 2019, dated 2023)
